One may read the Ki as the equilibrium dissociation constant of an inhibitor or competing ligand from its target. For orientation: Papp A→B means the apparent permeability from the apical to the basolateral side of a cell layer. For orientation: Papp B→A means the apparent permeability from the basolateral to the apical side of a cell layer. A word on the efflux ratio: it is a quotient of directional permeabilities that is used to spot active efflux.

This is an account of results in patent publication US12486250B2, “Muscarinic receptor 4 antagonists and methods of use” (Neurocrine Biosciences, Inc., priority 2019, dated 2025).

One data set addresses T1, human M4 receptor (Homo sapiens, UniProt P08173).
T1 construct: expressed in transfected cells; host or cells: CHO cells
T1 sequence (P08173 1-479): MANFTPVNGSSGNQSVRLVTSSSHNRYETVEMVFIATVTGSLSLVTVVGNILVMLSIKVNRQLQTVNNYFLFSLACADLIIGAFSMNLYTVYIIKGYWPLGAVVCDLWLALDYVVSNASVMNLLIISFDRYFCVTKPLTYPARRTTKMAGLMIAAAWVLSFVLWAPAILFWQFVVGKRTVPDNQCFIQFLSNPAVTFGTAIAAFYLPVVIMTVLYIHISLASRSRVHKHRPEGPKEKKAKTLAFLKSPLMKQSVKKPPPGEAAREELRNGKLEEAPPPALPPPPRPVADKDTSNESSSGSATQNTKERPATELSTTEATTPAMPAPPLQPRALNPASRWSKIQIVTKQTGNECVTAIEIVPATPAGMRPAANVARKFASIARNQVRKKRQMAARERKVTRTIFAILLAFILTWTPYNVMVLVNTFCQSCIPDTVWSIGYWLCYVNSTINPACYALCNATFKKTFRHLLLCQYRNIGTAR
The data set is described as follows: Radioligand ([3H]N-methylscopolamine) binding assay, CHO cell membranes. The following applies: 1.5 nM tritiated N-methylscopolamine, 90 minutes at 37° C.; read-out: Binding affinity (Ki) M4. The method, then: (§1) Binding affinity (Ki) of compounds was measured by inhibition of radioligand binding to membranes from CHO cells expressing human M1, M2, M3, M4 and M5 receptors. Membranes were prepared by nitrogen cavitation and differential centrifugation as previously described (Hoare et al., Mol. Pharmacol. 2003 March; 63(3): 751-65). The radioligand employed was tritiated N-methylscopolamine, used at a concentration of 1.5 nM. A dose-response of twelve concentrations of compound was used, ranging from […]. The assay buffer was 50 mM HEPES, 100 mM NaCl, 5 mM MgCl2, 1 mM ethylenediaminetetraacetic acid, pH-adjusted to pH 7.4. Membranes, radioligand and compound were incubated together for 90 minutes at 37° C., in a total volume of 150 μL in a 96-well plate. Receptor-bound radioligand was then collected by harvesting the assay over glass fiber filters pretreated with polyethylenimine to trap the cell membranes, using rapid vacuum filtration. Harvesting and radioactivity counting was conducted as previously described (see, e.g., Hoare et al., Mol. Pharmacol. 2003 63(3):751-65); Erratum at Mol. Pharmacol. 2005 July; 68(1): 260).

For the next data set, the target named is T2, human M2 receptor (Homo sapiens, UniProt P08172).
T2 construct: expressed in transfected cells; host or cells: CHO cells
T2 sequence (P08172 1-466): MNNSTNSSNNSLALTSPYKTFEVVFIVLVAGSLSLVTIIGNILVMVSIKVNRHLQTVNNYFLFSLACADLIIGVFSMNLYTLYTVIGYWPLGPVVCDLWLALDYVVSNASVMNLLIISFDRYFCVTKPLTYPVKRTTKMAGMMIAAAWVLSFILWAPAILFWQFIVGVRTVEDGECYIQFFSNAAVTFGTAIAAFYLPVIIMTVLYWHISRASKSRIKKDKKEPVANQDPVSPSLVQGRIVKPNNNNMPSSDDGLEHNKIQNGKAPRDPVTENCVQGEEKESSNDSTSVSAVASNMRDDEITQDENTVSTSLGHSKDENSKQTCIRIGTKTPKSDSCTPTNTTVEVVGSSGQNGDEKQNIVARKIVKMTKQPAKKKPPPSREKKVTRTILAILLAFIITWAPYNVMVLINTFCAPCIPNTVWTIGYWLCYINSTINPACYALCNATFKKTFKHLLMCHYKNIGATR
Described as above. The settings on record: 1.5 nM tritiated N-methylscopolamine, 90 minutes at 37° C.; read-out: Binding affinity (Ki) M2. The method, then:
as §1

The target in data set [1] is T3, MDR1 (Multidrug resistance protein 1) (Homo sapiens, UniProt P08183).
T3 construct: host or cells: MDCK cells
The data set is described as follows: MDCK-MDR1 assay (apparent permeability and efflux ratio). Type of data set: in vitro ADME. The following applies: for Papp A→B at 2 h, 5 µM / Papp B→A at 2 h, 5 μM: MDCK-MDR1, pH 7.4, 2 hours at 37° C.; for Papp A→B at 2 h, 5 µM: apical to basolateral; for Papp B→A at 2 h, 5 μM: basolateral to apical; for efflux ratio at 2 h, 5 µM: MDCK-MDR1, pH 7.4, Papp B>A/Papp A>B. The method, then: Apparent permeability and efflux ratios were generated by Absorption Systems LLP, Exton, PA MDCK cells transfected with human MDR1 (Multidrug resistance protein 1) were grown as monolayers on microporous membranes in 12-well assay plates. Each compound was evaluated at a single concentration equal to 5 μM. The assay buffer consisted of Hanks' balanced salt solution pH 7.4 containing 10 mM HEPES and 15 mM glucose. Test article diluted in assay buffer was dosed to the apical chambers of cell monolayer plates to determine apical to basolateral (A to B) permeability. Basolateral to apical (B to A) permeability was determined by addition of dosing solution to the basolateral chambers. […] Cell monolayers dosed with test article were incubated for 2 hours at 37° C., 5% CO2 in a humidified incubator. Samples were collected from both donor and receiver chambers at 2 hours then prepared for LC-MS/MS analysis using electrospray ionization. Duplicate measurements of A to B and B to A permeability were collected for each compound. Efflux ratio was calculated using the following formula: Papp B>A/Papp A>B. Controls were incorporated to ensure cell monolayer integrity (lucifer yellow) and activity of MDR1 protein (digoxin).

For `C[C@@H]1CN(c2cnc(C(F)(F)F)cn2)C[C@H](C)N1C(=O)OCCC1CCN(Cc2ccccc2)CC1` [Compound 1, 2-(1-benzylpiperidin-4-yl)ethyl (2R,6S)-2,6-dimethyl-4-[5-(trifluoromethyl)pyrazin-2-yl]piperazine-1-carboxylate], the Ki on human M4 receptor was 1.8 nM. Besides, the inhibitory constant (Ki) on human M2 receptor came out at 1860 nM. Moreover, in data set [1], the apparent permeability from apical to basolateral (Papp A→B) at 2 h, 5 µM stood at 15 ×10⁻⁶ cm/s; the Papp B→A at 2 h, 5 μM is 21.3 ×10⁻⁶ cm/s; the efflux ratio at 2 h, 5 µM turned out to be 1.42.

Take `C[C@@H]1CN(c2cnc(C(F)(F)F)cn2)C[C@@H](C)N1C(=O)OCCC1CCN(Cc2ccccc2)CC1` [Compound 2, 2-(1-benzylpiperidin-4-yl)ethyl (2R,6R)-2,6-dimethyl-4-[5-(trifluoromethyl)pyrazin-2-yl]piperazine-1-carboxylate]: the inhibitory constant (Ki) on human M4 receptor was determined as 4 nM. Moreover, the Ki at human M2 receptor was determined as 271 nM. For the same molecule, in data set [1], the Papp A→B at 2 h, 5 µM worked out at 17.5 ×10⁻⁶ cm/s; the Papp B→A at 2 h, 5 μM came to 24.1 ×10⁻⁶ cm/s; the efflux ratio at 2 h, 5 µM was found to be 1.38.

Consider `C[C@@H]1CN(c2ncc(C#N)cn2)C[C@H](C)N1C(=O)NCCC1CCN(Cc2ccccc2)CC1` [Compound 3A], for which, on human M4 receptor, the inhibitory constant (Ki) worked out at 3 nM. Besides, the inhibition constant (Ki) on human M2 receptor worked out at 520 nM. Further, in data set [1], the apparent permeability from apical to basolateral (Papp A→B) at 2 h, 5 µM was 0.53 ×10⁻⁶ cm/s; the apparent permeability from basolateral to apical (Papp B→A) at 2 h, 5 μM is 51.2 ×10⁻⁶ cm/s; the efflux ratio at 2 h, 5 µM is 96.6.

For `C[C@@H]1CN(c2cnc(C(F)(F)F)cn2)C[C@@H](C)N1C(=O)NCCC1CCN(Cc2ccccc2)CC1` [Compound 4A], the Ki at human M4 receptor was 5 nM. Also, the inhibition constant (Ki) at human M2 receptor was 665 nM. In data set [1], the Papp A→B at 2 h, 5 µM worked out at 0.55 ×10⁻⁶ cm/s; the basolateral-to-apical permeability (Papp B→A) at 2 h, 5 μM turned out to be 68.6 ×10⁻⁶ cm/s; the efflux ratio at 2 h, 5 µM amounted to 125.
